According to PubChem BioAssay (NCI):
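Briefly, cells in 96-well plates were exposed to five compound concentrations for 48 h, and endpoints were estimated by linear interpolation. TGI marks complete inhibition of growth.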

How the values were obtained:
Experiment in all cases: inhibition of tumour cell growth, NCI panel, 48 h
LOX IMVI melanoma = test system: LOX IMVI melanoma
SW-620 colon = test system: SW-620 colon
HCC-2998 colon = test system: HCC-2998 colon
SK-MEL-2 melanoma = test system: SK-MEL-2 melanoma
NCI-H522 lung = test system: NCI-H522 lung
MOLT-4 leukemia = test system: MOLT-4 leukemia
786-0 renal = test system: 786-0 renal
XF 498 CNS = test system: XF 498 CNS
M14 melanoma = test system: M14 melanoma
UACC-62 melanoma = test system: UACC-62 melanoma
SK-OV-3 ovarian = test system: SK-OV-3 ovarian
TK-10 renal = test system: TK-10 renal
KM20L2 colon = test system: KM20L2 colon
DLD-1 colon = test system: DLD-1 colon
SK-MEL-28 melanoma = test system: SK-MEL-28 melanoma
UACC-257 melanoma = test system: UACC-257 melanoma
M19-MEL melanoma = test system: M19-MEL melanoma
SF-295 CNS = test system: SF-295 CNS
A549 NSCLC = test system: A549 NSCLC
CAKI-1 renal = test system: CAKI-1 renal
SF-539 CNS = test system: SF-539 CNS
HOP-92 NSCLC = test system: HOP-92 NSCLC
OVCAR-4 ovarian = test system: OVCAR-4 ovarian
MALME-3M melanoma = test system: MALME-3M melanoma
A498 renal = test system: A498 renal
HOP-62 NSCLC = test system: HOP-62 NSCLC
DMS 114 small cell lung = test system: DMS 114 small cell lung
OVCAR-5 ovarian = test system: OVCAR-5 ovarian
COLO 205 colon = test system: COLO 205 colon
HCT-15 colon = test system: HCT-15 colon
CCRF-CEM leukemia = test system: CCRF-CEM leukemia
SN12C renal = test system: SN12C renal
HCT-116 colon = test system: HCT-116 colon
SNB-75 CNS = test system: SNB-75 CNS
UO-31 renal = test system: UO-31 renal
NCI-H460 lung = test system: NCI-H460 lung
RPMI-8226 leukemia = test system: RPMI-8226 leukemia
SNB-19 CNS = test system: SNB-19 CNS
K-562 leukemia = test system: K-562 leukemia
IGROV1 ovarian = test system: IGROV1 ovarian
KM12 colon = test system: KM12 colon
SNB-78 CNS = test system: SNB-78 CNS
OVCAR-3 ovarian = test system: OVCAR-3 ovarian
ACHN renal = test system: ACHN renal
HOP-18 NSCLC = test system: HOP-18 NSCLC
LXFL 529 NSCLC = test system: LXFL 529 NSCLC
EKVX NSCLC = test system: EKVX NSCLC
RXF 393 renal = test system: RXF 393 renal
SF-268 CNS = test system: SF-268 CNS
DMS 273 small cell lung = test system: DMS 273 small cell lung
U251 CNS = test system: U251 CNS
OVCAR-8 ovarian = test system: OVCAR-8 ovarian
HL-60(TB) leukemia = test system: HL-60(TB) leukemia
NCI-H23 lung = test system: NCI-H23 lung
SK-MEL-5 melanoma = test system: SK-MEL-5 melanoma
NCI-H226 lung = test system: NCI-H226 lung
HT29 colon = test system: HT29 colon

`CC1CC(c2ccccc2)=Nc2ccccc2S1(=O)=O` (stereo not given) was tested, and the TGI (LOX IMVI melanoma) was 31 µM, the TGI (SW-620 colon) was 31.6 µM and the TGI (HCC-2998 colon) was 19.5 µM. The TGI (SK-MEL-2 melanoma) was 31.3 µM, the TGI (NCI-H522 lung) was 31 µM and the TGI (MOLT-4 leukemia) was 33.3 µM. For the same compound, the TGI (786-0 renal) was 30.9 µM, the TGI (XF 498 CNS) was 32.7 µM and the TGI (M14 melanoma) was 40.9 µM. The TGI (UACC-62 melanoma) was 55.7 µM, the TGI (SK-OV-3 ovarian) was 36.4 µM and the TGI (TK-10 renal) was 47.7 µM. For the same compound, the TGI (KM20L2 colon) was 31.7 µM, the TGI (DLD-1 colon) was 28.4 µM and the TGI (SK-MEL-28 melanoma) was 29.8 µM. The TGI (UACC-257 melanoma) was 23.8 µM, the TGI (M19-MEL melanoma) was 30.5 µM and the TGI (SF-295 CNS) was 39.4 µM. It also gave a TGI (A549 NSCLC) of 55.6 µM, a TGI (CAKI-1 renal) of 48.5 µM and a TGI (SF-539 CNS) of 34.1 µM. For the same compound, the TGI (HOP-92 NSCLC) was 48.7 µM, the TGI (OVCAR-4 ovarian) was 38.3 µM and the TGI (MALME-3M melanoma) was 37.1 µM. For the same compound, the TGI (A498 renal) was 28.2 µM, the TGI (HOP-62 NSCLC) was 39.8 µM and the TGI (DMS 114 small cell lung) was 45.8 µM. The TGI (OVCAR-5 ovarian) was 35.7 µM, the TGI (COLO 205 colon) was 40.9 µM and the TGI (HCT-15 colon) was 54.2 µM. For the same compound, the TGI (CCRF-CEM leukemia) was 43.4 µM, the TGI (SN12C renal) was 34.3 µM and the TGI (HCT-116 colon) was 3.13 µM. For the same compound, the TGI (SNB-75 CNS) was 35.9 µM, the TGI (UO-31 renal) was 29 µM and the TGI (NCI-H460 lung) was 34.9 µM. It also gave a TGI (RPMI-8226 leukemia) of 5.59 µM, a TGI (SNB-19 CNS) of 28.4 µM and a TGI (K-562 leukemia) of 41.9 µM. For the same compound, the TGI (IGROV1 ovarian) was 37.8 µM, the TGI (KM12 colon) was 31.3 µM and the TGI (SNB-78 CNS) was 30.8 µM. It also gave a TGI (OVCAR-3 ovarian) of 32.8 µM, a TGI (ACHN renal) of 30.1 µM and a TGI (HOP-18 NSCLC) of 30 µM. The TGI (LXFL 529 NSCLC) was 28.6 µM, the TGI (EKVX NSCLC) was 39.6 µM and the TGI (RXF 393 renal) was 28.7 µM. It also gave a TGI (SF-268 CNS) of 31.4 µM, a TGI (DMS 273 small cell lung) of 38.3 µM and a TGI (U251 CNS) of 31.9 µM. It also gave a TGI (OVCAR-8 ovarian) of 43.9 µM, a TGI (HL-60(TB) leukemia) of 52.8 µM and a TGI (NCI-H23 lung) of 30.8 µM. For the same compound, the TGI (SK-MEL-5 melanoma) was 32.5 µM.
For `CC(=O)NC(CCCCNC(=O)OCc1ccccc1)C(=O)NCc1ccccc1` (stereo not given), the TGI (LOX IMVI melanoma) was > 100 µM, the TGI (SW-620 colon) was > 100 µM and the TGI (NCI-H226 lung) was > 100 µM. The TGI (HCC-2998 colon) was > 100 µM, the TGI (SK-MEL-2 melanoma) was > 100 µM and the TGI (NCI-H522 lung) was > 100 µM. The TGI (MOLT-4 leukemia) was > 100 µM, the TGI (786-0 renal) was > 100 µM and the TGI (XF 498 CNS) was > 100 µM. The TGI (M14 melanoma) was > 100 µM, the TGI (HT29 colon) was > 100 µM and the TGI (UACC-62 melanoma) was > 100 µM. The TGI (SK-OV-3 ovarian) was > 100 µM, the TGI (TK-10 renal) was > 100 µM and the TGI (KM20L2 colon) was > 100 µM. The TGI (DLD-1 colon) was > 100 µM, the TGI (SK-MEL-28 melanoma) was > 100 µM and the TGI (UACC-257 melanoma) was > 100 µM. The TGI (M19-MEL melanoma) was > 100 µM, the TGI (SF-295 CNS) was > 100 µM and the TGI (A549 NSCLC) was > 100 µM. The TGI (CAKI-1 renal) was > 100 µM, the TGI (SF-539 CNS) was > 100 µM and the TGI (HOP-92 NSCLC) was > 100 µM. The TGI (OVCAR-4 ovarian) was > 100 µM, the TGI (MALME-3M melanoma) was > 100 µM and the TGI (A498 renal) was > 100 µM. The TGI (HOP-62 NSCLC) was > 100 µM, the TGI (DMS 114 small cell lung) was > 100 µM and the TGI (OVCAR-5 ovarian) was > 100 µM. For the same compound, the TGI (COLO 205 colon) was > 100 µM, the TGI (HCT-15 colon) was > 100 µM and the TGI (CCRF-CEM leukemia) was > 100 µM. For the same compound, the TGI (SN12C renal) was > 100 µM, the TGI (HCT-116 colon) was > 100 µM and the TGI (SNB-75 CNS) was > 100 µM. The TGI (UO-31 renal) was > 100 µM, the TGI (NCI-H460 lung) was > 100 µM and the TGI (RPMI-8226 leukemia) was > 100 µM. For the same compound, the TGI (SNB-19 CNS) was > 100 µM, the TGI (K-562 leukemia) was > 100 µM and the TGI (IGROV1 ovarian) was > 100 µM. For the same compound, the TGI (KM12 colon) was > 100 µM, the TGI (SNB-78 CNS) was > 100 µM and the TGI (OVCAR-3 ovarian) was > 100 µM. For the same compound, the TGI (ACHN renal) was > 100 µM, the TGI (LXFL 529 NSCLC) was > 100 µM and the TGI (EKVX NSCLC) was > 100 µM. For the same compound, the TGI (RXF 393 renal) was > 100 µM, the TGI (SF-268 CNS) was > 100 µM and the TGI (DMS 273 small cell lung) was > 100 µM. For the same compound, the TGI (U251 CNS) was > 100 µM, the TGI (OVCAR-8 ovarian) was > 100 µM and the TGI (NCI-H23 lung) was > 100 µM. The TGI (SK-MEL-5 melanoma) was > 100 µM.
